Where two headings read alike, the source gives them in different places. Each block holds one molecule with its values, some of them ahead of it.
Tests used:
[1] = system: CCND1, CCND3, CDK4 in T47D cells; assay: Immunoblot of CCND1, CCND3, CDK4 protein degradation in T47D cells (FIG. 2A, 48 hours); assay type: cell-based; conditions: negative control vs CPD-10
Description: Specific exemplary heterobifunctional compounds were characterized in Calu-1, MCF7, T47D and other cells. Cells that express cyclin D1-3 and CDK4/6 proteins were treated with heterobifunctional compounds disclosed herein at indicated concentrations. MCF7 cells were deprived of serum for 2 hours followed by the treatment with heterobifunctional compounds. Cells were collected, lysed and subject to immunoblotting using an antibody specific to CCND1, CCND2, CCND3, CDK4, or FoxM1, cyclin A2, or phosphorylated Rb (S807/811) proteins. Tubulin or GAPDH was used as the loading control. DMSO treatment was used as the negative control.
To verify that heterobifunctional compound-mediated degradation is dependent on the binding to CDK4-cyclin D complex, a negative control compound, CPD-143, which is derived from active heterobifunctional compound CPD-10 was designed. CPD-143 bears the same DDB1 ligand and linker as CPD-10 but with a modified warhead to impair the binding of the control compound to CDK4.

Calu-1 cells [2] = assay: Anti-proliferation (viability) of NSCLC Calu-1 cells, 3 days (Table 7, FIG. 2B); assay type: cell-based; conditions: for IC50: Homo sapiens, 72 h, Calu-1 cells, 3 days, 10-point serial dilution, read-out: GI IC50 in Calu-1
Procedure, shortened: (§1)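 Cells treated with heterobifunctional compounds in 10-point serial dilution, then viability measured; Calu-1 NSCLC cells exposed for 3 days, ER+ T47D breast cancer cells for 6 days.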

T47D cells [3] = assay: Anti-proliferation (viability) of ER+ breast cancer T47D cells, 6 days (Table 7, FIG. 2B); assay type: cell-based; conditions: for IC50: Homo sapiens, 144 h, T47D cells, 6 days, 10-point serial dilution, read-out: GI IC50 in T47D
Procedure, shortened: as §1

MCF7 cells [4] = assay: Anti-proliferation (viability) of MCF7 cells (Table 7, FIG. 2B); assay type: cell-based; conditions: for IC50: Homo sapiens, MCF7, MCF7 cells, 3-6 days, 10-point serial dilution, read-out: GI IC50 in MCF-7
HCC1428 cells [5] = assay: Flow cytometric analysis of Annexin V/7-AAD stained HCC1428 cells (apoptosis), 6 days (FIG. 3B); assay type: cell-based; conditions: HCC1428; 400 nM; 6 days
Description: (§2) T47D cells were treated with DMSO, palbociclib, heterobifunctional compound CPD-10 for 6 days at doses approximating IC50and IC90 concentrations as indicated (FIG. 3A). HCC1428 cells were treated with DMSO, palbociclib, heterobifunctional compound CPD-10, or its negative control compound CPD-143 for 6 days at doses approximating IC90 concentrations as indicated (FIG. 3B). Cells were harvested by trypsinization, staining was carried out using the Annexin V Apoptosis Detection Kit. The percentages of early apoptotic (Annexin V^+7-AAD^−, lower right quadrant), late apoptotic (Annexin V^+7-AAD^+, upper right quadrant) and necrotic cells (Annexin V^−7-AAD^+, upper left quadrant) are indicated on dot plots.

Calu-1 cells [6] = assay: Cell viability / anti-proliferation assay, Calu-1 (Table 7, FIG. 2B); assay type: cell-based; conditions: 10-point serial dilution, 3-6 days
Description: (§3) NSCLC Calu-1 or ER+ breast cancer T47D cells were treated with selected heterobifunctional compounds following a 10-point serial dilution for 3 or 6 days, respectively.
(§4) Cells were treated with heterobifunctional compounds following a 10-point serial dilution for 3-6 days. In Calu-1 cells, A: anti-proliferation activity IC50≤10 nM; B: anti-proliferation activity IC50<50 nM, and ≥10 nM; C: anti-proliferation activity IC50≥50 nM. In T47D cells, A: anti-proliferation activity IC50≤50 nM; B: anti-proliferation activity IC50≤100 nM, and ≥50 nM; C: anti-proliferation activity IC50≥100 nM; -, data not available.
(§5) Calu-1, MCF7 or T47D cells were seeded in 96-well plates and treated with CPD-10, or CPD-143 following a 10-point serial dilution for 3-6 days (FIG. 2B).
(§6) Calu-1, T47D, MCF7, HCC1428 and other cells were cultured at 37° C. with 5% CO2 in RPMI 1640 or DMEM medium supplemented with 10% fetal bovine serum. […]
(§7) Cells were seeded at a density of 2,000-5,000 cells per well in 96-well assay plates and treated with test compounds following a 10-point serial dilution for 3-6 days. Cell viability was determined using the CellTiter-Lumi assay kit according to the manufacturer's instructions. The dose-response curves were determined and IC50 values were calculated using the GraphPad Prism software following a nonlinear regression (least squares fit) method. […]

T47D cells [7] = assay: Cell viability / anti-proliferation assay, T47D (Table 7, FIG. 2B); assay type: cell-based; conditions: 10-point serial dilution, 3-6 days
Description: as §3, §4, §5, §6, §7

MCF7 cells [8] = assay: Cell viability / anti-proliferation assay, MCF7 (Table 7, FIG. 2B); assay type: cell-based; conditions: 10-point serial dilution, 3-6 days
Description: as §3, §4, §5, §6, §7

CCND = CCND degradation in T47D cells with CPD-10 and negative control CPD-143 (FIG. 2A); assay type: cell-based; conditions: 48 hours, dose range
Description: (§8) T47D cells were treated with a dose range of heterobifunctional compound CPD-10, and its negative control compound CPD-143 for 48 hours (FIG. 2A).
(§9) Cultured cells were washed with cold PBS once and lysed in cold RIPA buffer supplemented with protease inhibitors and phosphatase inhibitors (Beyotime Biotechnology). The solutions were then incubated at 4 ? for 30 min with gentle agitation to fully lysed cells. Cell lysates were centrifuged at 13,000 rpm for 10 min at 4 ? and pellets were discarded. Total protein concentrations in the lysates were determined following BCA assays (Beyotime Biotechnology). Cell lysates were mixed with Laemmli loading buffer and heated at 99° C. for 5 min. Proteins were resolved on SDS-PAGE and visualized using Western ECL Substrate kits on a ChemiDoc MP Imaging system (Bio-Rad). Protein bands were quantitated using the Image Lab software provided by Bio-Rad.

T47D cells [9] = assay: Downstream inhibition in T47D cells with CPD-10 and negative control CPD-143 (FIG. 2A); assay type: cell-based; conditions: 48 hours, dose range
Description: as §8, §9

HCC1428 cells [10] = assay: Annexin V apoptosis flow cytometry, HCC1428 (FIG. 3B); assay type: cell-based; conditions: HCC1428, dose approximating IC90, 6 days
Description: as §2, with “IC50 and” for “IC50and”, “Kit.” for “Kit. The percentages of early apoptotic (Annexin V^+7-AAD^−, lower right quadrant), late apoptotic (Annexin V^+7-AAD^+, upper right quadrant) and necrotic cells (Annexin V^−7-AAD^+, upper left quadrant) are indicated on dot plots.”
Assays were performed on the CytoFLEX Cytometer (Beckman Coulter), and data were analyzed using CytExpert software. For cell death and apoptosis analysis, cells were harvested by trypsinization, staining was carried out using the Annexin V Apoptosis Detection Kit (BD Biosciences). Briefly, cells were resuspended in 1× binding buffer and incubated with fluorochrome-conjugated Annexin V and 7-AAD for 15 min in darkness at room temperature.

CDK4 = CDK4 (Homo sapiens, UniProt P11802+Q16531); assay: CDK4 percentage degradation in Calu-1 cells (Table 6); assay type: cell-based; design: Cells that express cyclin D1-3 and CDK4/6 proteins were treated with heterobifunctional compounds; endogenous in cells; host or cells: Calu-1; conditions: 16 hours; for inhibition at 0.04 µM: 40 nM; for inhibition at 0.2 µM: 200 nM
Procedure, shortened: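 Calu-1 cells exposed to heterobifunctional compounds at 40 nM or 200 nM for 16 h. Cyclin D1 and CDK4 levels measured by Western blot of RIPA lysates (BCA-normalised loading), bands quantified by densitometry and expressed as percentage degradation.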

T47D parental cells = assay: CellTiter-Lumi cell viability assay, T47D parental cells, 6 days (FIG. 4); assay type: cell-based; conditions: Homo sapiens, 144 h
Description: (§10) Furthermore, we developed one ER^+ breast cancer T47D model with acquired resistance after long period of treatment with 1 μM palbociclib (over IC90). Cells were deemed resistant when growing in the presence of palbo at the same rate as parental cells. Palbo resistance was determined by CellTiter-Lumi cell viability assay (FIG. 4, IC50>10,000 nM).

[11] = system: T47D palbo-resistant cells; assay: CellTiter-Lumi cell viability assay, T47D palbo-resistant cells, 6 days (FIG. 4); assay type: cell-based; conditions: Homo sapiens, 144 h
Description: as §10

[12] = Pharmacokinetics in mice, single dose i.v. injection or oral gavage (FIG. 5); assay type: in vivo; conditions: mouse, plasma
Description: To investigate the pharmacokinetics of heterobifunctional compounds, exemplified by CPD-39, a single dose of CPD-39 via 1 mg/kg intravenous (i.v.) injection or 10 mg/kg was evaluated in mice. Plasma concentration reported at each time points post dosing represents the mean value derived from 3 experimental animals.

[13] = system: T47D palbo-resistant cells; assay: Cell viability in T47D palbociclib-resistant model (FIG. 4); assay type: cell-based; conditions: 10-point serial dilution, 6 days
Description: T47D cells were cultured long-term to resistance in the presence of 1 μM Palbociclib. Palbo resistance was determined by CellTiter-Lumi cell viability assay. T47D parental or palbo-resistant cells were treated with palbociclib, or heterobifunctional compounds CPD-10 or CPD-39 following a 10-point serial dilution for 6 days.
Calu-1, T47D, MCF7, HCC1428 and other cells were cultured at 37° C. with 5% CO2 in RPMI 1640 or DMEM medium supplemented with 10% fetal bovine serum. Cells were authenticated using the short tandem repeat (STR) assays. Mycoplasma test results were negative. For palbo-resistant cell model, T47D cells were cultured long-term to resistance in the presence of 1 μM Palbociclib. Cells were deemed resistant when growing in the presence of Palbo at the same rate as parental cells.
Cells were seeded at a density of 2,000-5,000 cells per well in 96-well assay plates and treated with test compounds following a 10-point serial dilution for 3-6 days. Cell viability was determined using the CellTiter-Lumi assay kit according to the manufacturer's instructions. The dose-response curves were determined and IC50 values were calculated using the GraphPad Prism software following a nonlinear regression (least squares fit) method. Data presented was mean±standard deviation (SD)unless otherwise indicated.

[14] = Mouse pharmacokinetics (FIG. 5); assay type: in vivo, male Swiss Albino mice; conditions: plasma, po, mice, 1 mg/kg i.v. and 10 mg/kg p.o., over 12 hours
Description: A single dose of CPD-39 via 1 mg/kg intravenous (i.v.) injection or 10 mg/kg oral (p.o.) gavage was evaluated in mice. Plasma concentration of CPD-39 reported at each time points post dosing (5 min, 15 min, 30 min, 1 h, 2 h, 4 h, and 8 h via i.v.; 15 min, 30 min, 1 h, 2 h, 4 h, 6 h, 8 h, and 12 h via p.o.) represents the mean value derived from 3 experimental animals.
Standard PK studies were conducted using male Swiss Albino mice by Sai Life Sciences. A single dose of test compound via intravenous (i.v.) injection or oral (p.o.) gavage was evaluated in fed mice. Plasma concentration of test compound reported at each time points represents the mean value derived from 3 experimental animals. Error bars represent +SD.

CDK4, sequence (P11802 2-303 limits assumed): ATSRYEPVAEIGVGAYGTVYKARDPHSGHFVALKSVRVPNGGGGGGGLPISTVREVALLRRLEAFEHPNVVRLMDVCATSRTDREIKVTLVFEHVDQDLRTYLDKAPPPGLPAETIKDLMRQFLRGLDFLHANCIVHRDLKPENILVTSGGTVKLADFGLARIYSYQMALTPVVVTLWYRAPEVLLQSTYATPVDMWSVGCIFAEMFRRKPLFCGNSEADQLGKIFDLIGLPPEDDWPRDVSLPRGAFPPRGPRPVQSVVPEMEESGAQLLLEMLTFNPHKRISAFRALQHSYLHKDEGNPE
CDK4, sequence (P24385 whole entry partner): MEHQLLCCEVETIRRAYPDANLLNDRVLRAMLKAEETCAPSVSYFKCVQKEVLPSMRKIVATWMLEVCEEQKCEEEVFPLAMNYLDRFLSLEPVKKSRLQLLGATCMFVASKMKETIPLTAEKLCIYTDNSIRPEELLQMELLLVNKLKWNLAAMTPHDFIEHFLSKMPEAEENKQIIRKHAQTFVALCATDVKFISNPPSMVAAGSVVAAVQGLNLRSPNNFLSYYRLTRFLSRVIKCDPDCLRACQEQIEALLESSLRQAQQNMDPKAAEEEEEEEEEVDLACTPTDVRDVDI
CDK4, sequence (Q16531 2-1140 limits assumed): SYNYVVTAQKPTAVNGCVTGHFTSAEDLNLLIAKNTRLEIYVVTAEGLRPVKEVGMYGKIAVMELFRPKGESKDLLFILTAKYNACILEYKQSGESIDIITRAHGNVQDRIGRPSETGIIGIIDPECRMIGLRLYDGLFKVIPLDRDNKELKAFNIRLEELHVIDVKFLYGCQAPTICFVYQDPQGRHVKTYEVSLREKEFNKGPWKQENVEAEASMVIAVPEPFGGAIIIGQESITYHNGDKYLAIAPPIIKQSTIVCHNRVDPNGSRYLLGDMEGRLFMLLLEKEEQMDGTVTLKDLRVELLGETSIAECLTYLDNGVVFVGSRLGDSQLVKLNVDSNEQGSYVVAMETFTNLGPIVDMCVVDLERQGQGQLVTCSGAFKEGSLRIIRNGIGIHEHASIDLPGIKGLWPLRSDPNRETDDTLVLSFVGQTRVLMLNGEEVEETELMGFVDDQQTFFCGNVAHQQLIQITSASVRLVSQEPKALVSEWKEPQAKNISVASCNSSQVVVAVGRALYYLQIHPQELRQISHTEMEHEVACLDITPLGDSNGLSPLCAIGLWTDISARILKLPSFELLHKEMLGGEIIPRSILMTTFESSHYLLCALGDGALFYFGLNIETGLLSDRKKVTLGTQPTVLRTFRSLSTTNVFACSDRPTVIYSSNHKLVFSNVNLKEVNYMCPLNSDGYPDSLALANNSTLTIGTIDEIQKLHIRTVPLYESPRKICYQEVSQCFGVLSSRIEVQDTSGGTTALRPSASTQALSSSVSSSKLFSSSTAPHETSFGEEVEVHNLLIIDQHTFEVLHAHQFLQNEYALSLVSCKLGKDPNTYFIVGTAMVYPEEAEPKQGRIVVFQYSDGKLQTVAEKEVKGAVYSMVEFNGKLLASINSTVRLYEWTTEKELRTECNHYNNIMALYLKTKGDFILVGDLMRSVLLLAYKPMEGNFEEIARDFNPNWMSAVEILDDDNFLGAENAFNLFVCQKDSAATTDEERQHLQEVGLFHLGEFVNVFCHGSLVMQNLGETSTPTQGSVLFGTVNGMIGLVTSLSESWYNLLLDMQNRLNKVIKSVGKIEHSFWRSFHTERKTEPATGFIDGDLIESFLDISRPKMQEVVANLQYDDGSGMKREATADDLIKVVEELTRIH

fold decrease in DC50 (degradation potency) compared with CPD-10 [1]: > 100 -fold | IC50 (Calu-1 cells [2]): ≥ 0.05 µM | IC50 (T47D cells [3]): ≥ 0.1 µM | IC50 (MCF7 cells [4]): > 0.1 µM | inhibition at 0.04 µM (CDK4): < 30% | inhibition at 0.2 µM (CDK4): 50 to 80%
Structure (SMILES): CNc1ccc(C(=O)Nc2ccc(N(C)C)nn2)c(NCCCCCCCNC(=O)CN2CCN(c3ccc(N(C)c4ncc5c(C)c(C(C)=O)c(=O)n(C6CCCC6)c5n4)nc3)CC2)n1 [CPD-143, 2-((7-(2-(4-(6-((6-acetyl-8-cyclopentyl-5-methyl-7-oxo-7,8-dihydropyrido[2,3-d]pyrimidin-2-yl)(methyl)amino)pyridin-3-yl)piperazin-1-yl)acetamido)heptyl)amino)-N-(6-(dimethylamino)pyridazin-3-yl)-6-(methylamino)nicotinamide]
fold decrease in cellular anti-proliferation activity compared with CPD-10 (Calu-1 cells [2]; Calu-1, negative control vs CPD-10, FIG. 2B): > 50 -fold | fold decrease in cellular anti-proliferation activity compared with CPD-10 (T47D cells [3]; T47D, negative control vs CPD-10, FIG. 2B): > 50 -fold | fold decrease in cellular anti-proliferation activity compared with CPD-10 (MCF7 cells [4]; MCF7, negative control vs CPD-10, FIG. 2B): > 15 -fold | Annexin V+ population (HCC1428 cells [5]): 11.8% | cell viability / anti-proliferation activity (Calu-1 cells [6]): much weaker cellular anti-proliferation activities | cell viability / anti-proliferation activity (T47D cells [7]): much weaker cellular anti-proliferation activities | cell viability / anti-proliferation activity (MCF7 cells [8]): much weaker cellular anti-proliferation activities | degradation potency (CCND): much weaker degradation potencies | downstream inhibition potency (T47D cells [9]): much weaker degradation potencies and downstream inhibition potencies | cell apoptosis (HCC1428 cells [10]): much less effect on cell apoptosis

IC50 (Calu-1 cells [2]): ≤ 0.01 µM | IC50 (T47D cells [3]): ≤ 0.05 µM | IC50 (MCF7 cells [4]): > 0.1 µM | IC50 [11]: 0.0825 µM | AUC(0-inf) ([12]; iv, mice, 1 mg/kg i.v., read-out: AUCinf, i.v.): 1.03 µg·h/mL | clearance ([12]; iv, mice, 1 mg/kg i.v., read-out: CL, i.v.): 0.978 L/h/kg | Vd ([12]; iv, mice, 1 mg/kg i.v., read-out: VSS, i.v.): 1.6 L/kg | AUC(0-inf) ([12]; po, fed mice, 10 mg/kg p.o., read-out: AUCinf, p.o.): 1.58 µg·h/mL | bioavailability ([12]; fed mice, 10 mg/kg oral vs 1 mg/kg i.v.): > 15% | bioavailability at 12 h [14]: ~15% | inhibition at 0.04 µM (CDK4): 50 to 80% | inhibition at 0.2 µM (CDK4): 50 to 80%
Structure (SMILES): CNc1ccc(C(=O)Nc2ccc(N(C)C)nn2)c(NC2CC3(CC(NC(=O)CN4CCN(c5ccc(Nc6ncc7c(C)c(C(C)=O)c(=O)n(C8CCCC8)c7n6)nc5)CC4)C3)C2)n1 (stereo not drawn) [CPD-39, 2-((6-(2-(4-(6-((6-Acetyl-8-cyclopentyl-5-methyl-7-oxo-7,8-dihydropyrido[2,3-d]pyrimidin-2-yl)amino)pyridin-3-yl)piperazin-1-yl)acetamido)spiro[3.3]heptan-2-yl)amino)-N-(6-(dimethylamino)pyridazin-3-yl)-6-(methylamino)nicotinamide]
IC50 (T47D parental cells): 0.0326 µM | cell viability in palbociclib-resistant model [13]: remained effective in T47D palbo-resistant model
